The results in this text go back to ChEMBL document CHEMBL5042484, “Design of SARS-CoV-2 PLpro Inhibitors for COVID-19 Antiviral Therapy Leveraging Binding Cooperativity” (J Med Chem, 2022).

The assay deals with SARS-CoV-2. Nature of the assay: Antiviral activity against SARS-COV-2 USA/WA1/2020 in human A549 cells overexpressing ACE2 receptor assessed as reduction in viral replication at MOI of 0.01 pretreated for 1 hr followed by viral infection and further incubated for 1 hr measured after 48 hrs by RT-qPCR analysis. The format is functional, organism-based. To be noted: Severe acute respiratory syndrome coronavirus 2, USA/WA1/2020, A549.
`Cc1ccc(NC2CNC2)cc1C(=O)N[C@H](C)c1cccc(-c2ccc(CNC3CCCC3)s2)c1`: the concentration giving a half-maximal response (EC50) (in general, the concentration at which the effect is half-maximal) was found to be 1400 nM. With `Cc1ccc(NC2CNC2)cc1C(=O)N[C@H](C)c1cccc(-c2ccc(CN3CCCC3)s2)c1`, the EC50 amounted to 1200 nM. For `Cc1ccc(N)cc1C(=O)N[C@H](C)c1cccc2ccccc12`, the EC50 is over 20000 nM.
